How the values were obtained:
[1] = tested on: C. elegans N2 worms; test: C. elegans lifespan analysis; type: in vivo; conditions: resveratrol 50 μM
Source text: (§1) FIG. 4A: Chemical structure of resveratrol. FIG. 4B: Yeast cell lysates and human HeLa cell lysates were each treated with resveratrol in vitro followed by thermolysin digestion and silver staining. Protected bands of similar size were detected. FIG. 4C: Resveratrol protects TAP-tagged eIF4A, but not an unrelated Htb2, protein from proteolysis. Arrow: protein protected from subtilisin proteolysis (H. sapiens (SEQ ID NO:1), M. musculus (SEQ ID NO:2), X. laevis (SEQ ID NO:3), D. melanogaster (SEQ ID NO:4), C. elegans (SEQ ID NO:5), S. purpuratus (SEQ ID NO:6), C. reinhardtii (SEQ ID NO:7), A. thaliana (SEQ ID NO:8), H. andersenii (SEQ ID NO:9), S. cerevisiae (SEQ ID NO:10)). FIG. 4D: Resveratrol inhibits eIF4A-dependent translation in HEK 293 cells as assayed by bicistronic translation reporters. […] FIG. 4E: eIF4A is required for longevity in resveratrol-treated animals. Resveratrol (50 μM) lengthens the lifespan of wild-type N2 worms fed control (gfp) RNAi (green), but not worms fed eIF4A (inf-1) RNAi (red) or daf-16 RNAi (blue). gfp(RNAi), mVeh=19 (n=74), mRSV=20 (n=78), P=0.0006***; inf-1(RNAi), mVeh=26 (n=76), mRSV=24 (n=79), P=0.4687; daf-16(RNAi), mVeh=17 (n=78), mRSV=17 (n=76), P=0.3305. m, mean lifespan (days of adulthood); n, number of animals tested.
N2 wild-type strains were maintained at 20° C. on standard nematode growth medium (NGM) seeded with E. coli OP50 as described (Brenner (1974) Genetics 77: 71-94). E. coli RNAi strains were obtained from Open Biosystems; clones were verified by sequencing. To make NGM plates containing resveratrol or vehicle, 240 μl of a solution containing 2.5 mM resveratrol (or the equivalent amount of ethanol, for vehicle control), 20% DMSO, 20% ethanol, 10% phosphate buffered saline (PBS), and 50% ddH20 were spread on top of the NGM plate, making a 50 μM final concentration of resveratrol in the plate. Resveratrol was dissolved in 95% ethanol and stored in 4° C.
Lifespan analysis was conducted with N2 worms at 20° C. Eggs were added to NGM plates containing OP50. […]

[2] = target: T1, TAP-tagged Tif1 (eIF4A) (Saccharomyces cerevisiae, UniProt P10081); test: DARTS western blot with TAP-tagged eIF4A yeast strain; type: binding; conditions: FIG. 10
T1 construct: endogenous in cells; host or cells: TAP-tagged eIF4A yeast strain (Ghaemmaghami et al. 2003 collection)
T1 sequence (P10081 1-395): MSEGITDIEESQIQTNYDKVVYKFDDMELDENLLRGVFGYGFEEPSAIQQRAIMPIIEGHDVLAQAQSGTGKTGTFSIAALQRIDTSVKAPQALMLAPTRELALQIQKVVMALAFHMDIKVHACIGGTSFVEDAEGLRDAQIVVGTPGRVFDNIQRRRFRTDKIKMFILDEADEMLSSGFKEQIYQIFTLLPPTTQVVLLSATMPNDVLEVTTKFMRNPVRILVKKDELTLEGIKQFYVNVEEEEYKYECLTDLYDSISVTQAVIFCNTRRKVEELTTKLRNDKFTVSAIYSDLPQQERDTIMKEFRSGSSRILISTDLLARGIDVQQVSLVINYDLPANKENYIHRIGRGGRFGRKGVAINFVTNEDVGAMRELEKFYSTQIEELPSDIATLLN
Source text: as §1
Arrow: protein protected from proteolysis. […]

[3] = tested on: eIF4A-dependent translation in HEK 293 cells; test: In vivo translation assay with bicistronic dual-luciferase reporters; type: cell-based, human; conditions: HEK293, Dual-Glo
Source text: as §1
The molecular mechanisms underlying resveratrol's lifespan effect have been controversial (Howitz et al. (2003) Nature 425: 191-196; Kaeberlein et al. (2005) J Biol Chem 280: 17038-17045), and whether Sir2 serves as a direct target for resveratrol is an interesting problem that is being pursued. […]
HEK293 cells in DMEM+10% FBS were pre-treated with 50 μM resveratrol for 1 hr, and transfected with bicistronic translation reporter plasmids using LipoD293 DNA in vitro transfection reagent (SignaGen). […] Reporter activity was measured 33 hr post-transfection using the Dual-Glo luciferase assay system (Promega) with an Analyst HT plate reader (Molecular Devices). […]

[4] = target: Tif1 A64Q point mutant (Saccharomyces cerevisiae, UniProt P10081, A64Q); test: DARTS target mutation analysis; type: binding, yeast; conditions: FIG. 4C
Source text: This enrichment was confirmed by western blotting using the TAP-tagged (Ghaemmaghami et al. (2003) Nature 425: 737-741) eIF4A yeast strain (FIG. 10). […] While the alanine is conserved throughout fungi and animals, plants have a glutamine at this position and the bulkier side chain is hypothesized to protect plant eIF4A from resveratrol inhibition by minimizing self binding.

Sequence of Tif1 A64Q point mutant (P10081 whole entry A64Q): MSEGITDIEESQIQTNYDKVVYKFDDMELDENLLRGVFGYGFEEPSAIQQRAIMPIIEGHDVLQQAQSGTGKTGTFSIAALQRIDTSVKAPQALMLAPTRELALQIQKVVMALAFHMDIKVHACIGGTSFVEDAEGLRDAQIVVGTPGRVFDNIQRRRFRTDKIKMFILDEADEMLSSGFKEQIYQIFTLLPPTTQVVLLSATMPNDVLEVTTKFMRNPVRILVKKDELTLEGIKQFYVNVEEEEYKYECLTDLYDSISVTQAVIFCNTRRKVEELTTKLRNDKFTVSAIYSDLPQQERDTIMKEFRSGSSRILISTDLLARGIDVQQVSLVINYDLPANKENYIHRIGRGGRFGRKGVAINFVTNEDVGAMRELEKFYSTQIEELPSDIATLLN

Oc1ccc(C=Cc2cc(O)cc(O)c2)cc1 [resveratrol]
mean lifespan ([1]; N2 worms fed daf-16(RNAi), vehicle 17, P=0.3305): 17 days of adulthood | mean lifespan ([1]; N2 worms fed gfp(RNAi) control, vehicle 19, P=0.0006): 20 days of adulthood | mean lifespan ([1]; N2 worms fed inf-1(RNAi) (eIF4A), vehicle 26, P=0.4687): 24 days of adulthood | protection of TAP-tagged Tif1 from proteolysis [2]: protects the TAP-tagged Tif1 | translation from the eIF4A-independent HCV IRES [3]: unaffected | EMCV IRES-mediated translation ([3]; requires eIF4A): inhibited in a dose-dependent manner | cap-dependent translation ([3]; requires eIF4A): inhibited in a dose-dependent manner | effect of Tif1 A64Q point mutation on resveratrol protection [4]: confers resistance to resveratrol
